The text below walks through data of PubChem BioAssay (NCI).

Some test systems named below: A549 NSCLC; ACHN renal; CCRF-CEM leukemia; EKVX NSCLC; HCC-2998 colon; IGROV1 ovarian; NCI-H23 lung; OVCAR-4 ovarian; OVCAR-5 ovarian; SF-295 CNS; SF-539 CNS; SK-MEL-28 melanoma; SW-620 colon; UACC-257 melanoma; A498 renal.
Holding throughout (assay): NCI tumour cell line growth inhibition, 48 h

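Five compound concentrations were applied to cells in 96-well plates for 48 hours; endpoints were derived by simple linear interpolation of the resulting dose-response curve. TGI marks complete inhibition of growth.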

With `COc1ccccc1-n1c(NN)nc2ccc(Br)cc2c1=O`, the TGI in the test on A549 NSCLC, in the test on ACHN renal, in the test on CCRF-CEM leukemia, in the test with EKVX NSCLC, in the test with HCC-2998 colon and in the test with IGROV1 ovarian was more than 100 µM each time. The TGI was more than 100 µM with NCI-H23 lung; more than 100 µM in the test with OVCAR-4 ovarian; 68.8 µM in the test with OVCAR-5 ovarian; more than 100 µM in the test with SF-295 CNS; 84.5 µM in the test with SF-539 CNS; more than 100 µM in the test on SK-MEL-28 melanoma. The TGI was more than 100 µM with SW-620 colon and 72.1 µM in the test with UACC-257 melanoma.

Consider `CC(C)N(C(=O)C12C3C4C1C1C2C3C41I)C(C)C` (stereo not given), for which the TGI in the test with A498 renal, in the test with A549 NSCLC, with ACHN renal, in the test with CCRF-CEM leukemia, in the test on EKVX NSCLC and in the test with HCC-2998 colon was more than 100 µM in each case. The TGI with IGROV1 ovarian, with NCI-H23 lung, in the test on OVCAR-4 ovarian, with OVCAR-5 ovarian, in the test on SF-295 CNS and in the test on SK-MEL-28 melanoma was more than 100 µM in each case. Further, in the test with SW-620 colon, the TGI is more than 100 µM.

Regarding `C#CCNC(=O)NCCCCC(NC(C)=O)C(=O)NCc1ccccc1` (stereo not given), the TGI in the test with A498 renal, in the test on A549 NSCLC, in the test with ACHN renal, with CCRF-CEM leukemia, in the test with EKVX NSCLC and in the test on HCC-2998 colon was more than 100 µM in each case. Also, the TGI with IGROV1 ovarian, in the test on NCI-H23 lung, with OVCAR-4 ovarian, in the test with OVCAR-5 ovarian, in the test on SF-295 CNS and with SF-539 CNS was more than 100 µM in each case. Also, the TGI with SK-MEL-28 melanoma, in the test with SW-620 colon and in the test on UACC-257 melanoma was more than 100 µM throughout.

As for `CC/C(=N/O)c1ccc2[nH]c3c(C)cc([N+](=O)[O-])c(C)c3c2c1`, the TGI with A549 NSCLC, in the test with ACHN renal, with CCRF-CEM leukemia, with EKVX NSCLC, in the test on HCC-2998 colon and in the test on NCI-H23 lung was more than 100 µM in each case. Besides, the TGI with OVCAR-4 ovarian, in the test on OVCAR-5 ovarian, with SF-295 CNS, with SF-539 CNS, in the test on SK-MEL-28 melanoma and with SW-620 colon was more than 100 µM each time. In addition, the TGI with UACC-257 melanoma was more than 100 µM.

Regarding `C[C@@]1(Cc2ccccc2)C(=O)N2[C@@H](CO)C(c3ccccc3)O[C@]2(C)c2ccccc21` (stereo not given in full), the TGI with A549 NSCLC, with ACHN renal, in the test with CCRF-CEM leukemia, in the test with EKVX NSCLC, with IGROV1 ovarian and with NCI-H23 lung was more than 100 µM throughout. Moreover, the TGI with OVCAR-4 ovarian, with OVCAR-5 ovarian, in the test on SF-295 CNS, in the test with SF-539 CNS, in the test with SK-MEL-28 melanoma and in the test with SW-620 colon was more than 100 µM each time.

As for `CC12C(=C(C#N)C(=N)N1c1ccc(Cl)c(Cl)c1)C=C(O)CC2SCCS(=O)(=O)O` (stereo not given), the TGI in the test on A498 renal, with A549 NSCLC, in the test on ACHN renal, with CCRF-CEM leukemia, in the test on EKVX NSCLC and in the test on HCC-2998 colon was more than 100 µM in each case. Also, the TGI in the test with IGROV1 ovarian, with NCI-H23 lung, in the test with OVCAR-4 ovarian, with SF-295 CNS, in the test on SF-539 CNS and with SK-MEL-28 melanoma was more than 100 µM throughout. Moreover, the TGI with SW-620 colon and in the test with UACC-257 melanoma was more than 100 µM in each case.

With `COc1cc2c(cc1O)CN1CCC23C=C[C@@H](O)CC13` (stereo not given in full), the TGI was more than 100 µM in the test on A498 renal; more than 100 µM in the test with A549 NSCLC; more than 100 µM in the test with ACHN renal; 81.3 µM in the test with CCRF-CEM leukemia; more than 100 µM in the test with EKVX NSCLC; more than 100 µM with HCC-2998 colon. In addition, the TGI in the test with IGROV1 ovarian, with NCI-H23 lung, in the test on OVCAR-4 ovarian, in the test on OVCAR-5 ovarian, in the test on SF-295 CNS and with SK-MEL-28 melanoma was more than 100 µM in each case. The TGI in the test on SW-620 colon and with UACC-257 melanoma was more than 100 µM each time.

As to `Cc1nc(-n2nc(-c3ccccc3)cc2-c2ccccc2)sc1C(=O)/C=C/c1ccc(Cl)c(Cl)c1`, the TGI was more than 100 µM in the test with A549 NSCLC; more than 100 µM in the test with ACHN renal; 69.7 µM with CCRF-CEM leukemia; more than 100 µM in the test with EKVX NSCLC; more than 100 µM with HCC-2998 colon; 30 µM in the test with IGROV1 ovarian. Also, the TGI in the test with NCI-H23 lung is more than 100 µM; in the test on OVCAR-4 ovarian it was 81.3 µM; with OVCAR-5 ovarian it was 66.2 µM; in the test on SF-295 CNS, 35.7 µM; with SF-539 CNS, 44.5 µM; in the test on SK-MEL-28 melanoma, more than 100 µM. The values for the TGI with SW-620 colon and with UACC-257 melanoma were 57.3 µM and more than 100 µM, respectively.

As for `COc1ccccc1-n1c(N)c2c(C)c(-c3ccccc3)[nH]c2nc1=S`, the TGI with A498 renal, in the test on A549 NSCLC, in the test on ACHN renal, in the test on CCRF-CEM leukemia, with HCC-2998 colon and in the test on NCI-H23 lung was more than 100 µM throughout. Moreover, the TGI in the test on OVCAR-4 ovarian, in the test on OVCAR-5 ovarian, with SF-539 CNS, in the test on SK-MEL-28 melanoma, with SW-620 colon and in the test with UACC-257 melanoma was more than 100 µM each time.

Take `CC1(C)OCN(c2ccc(S(N)(=O)=O)cc2)Cn2c1nc1ccccc12`: the TGI in the test on A498 renal, in the test with A549 NSCLC, in the test with ACHN renal, in the test with CCRF-CEM leukemia, in the test on EKVX NSCLC and in the test on HCC-2998 colon was more than 100 µM in each case. Also, the TGI with IGROV1 ovarian, in the test on NCI-H23 lung, in the test on OVCAR-4 ovarian, in the test with SF-295 CNS, in the test with SF-539 CNS and in the test with SK-MEL-28 melanoma was more than 100 µM each time. The TGI in the test on SW-620 colon and in the test on UACC-257 melanoma was more than 100 µM in each case.
